The text below walks through data of ChEMBL document CHEMBL1136265, “Dihydropyrimidinones--a new class of anti-staphylococcal antibiotics” (Bioorg Med Chem Lett, 2003).

Assay [1] is described as follows: In vitro inhibition of eucaryotic translation using […]. It is filed as functional.
The subject of a further assay is Escherichia coli. The experiment in a line: In vitro inhibition of procaryotic translation using Escherichia coli S30 Extract system for Circular DNA. The format is functional.
The test system of another assay is Staphylococcus aureus. The experiment in a line: Minimum inhibitory concentration against Staphylococcus aureus in vitro. It is filed as functional.
Assay [2] in a line: In vitro selectivity ratio of procaryotic translation to eukaryotic translation. The format is functional.
The test system of the next assay is J774. Put plainly: Cytotoxicity against macrophage cell line (J774). The format is functional, cell-based. To be noted: Mus musculus.
The subject of another assay is Mus musculus. Put plainly: In vivo inhibitory activity against Staphylococcus aureus 133 after iv dose using murine sepsis model. The format is functional.

The structures appear in SMILES notation. Values after ≈ are worked out from the molar mass of the structure shown.

As to `CN(C(=O)C[C@@H](N)CC[C@H](N)CO)C1CN=C(NC(N)=O)NC1=O.Cl.Cl` (some centres not stated), the IC50 (in assay [1]; with Escherichia coli) was 2400 nM in each case. In the assay on Staphylococcus aureus, inhibition of growth (MIC) required 3.2 µg/mL. Also, in assay [2], the Selectivity ratio came out at 1.
`CN(C(=O)C[C@@H](N)CCCCN=C(N)N)C1CN=C(NC(N)=O)NC1=O.Cl.Cl` (some centres not stated): the IC50 (commonly the concentration needed to halve the response being measured) is 1600 nM in assay [1] and 300 nM with Escherichia coli. In addition, inhibition of growth against Staphylococcus aureus (MIC) required 0.2 µg/mL. In addition, the Selectivity ratio in assay [2] was found to be 5.3.
Consider `CN(C(=O)C[C@@H](N)CCN=C(N)N)C1CN=C(NC(N)=O)NC1=O.Cl.Cl` (some centres not stated), for which the IC50 (in assay [1]; in the assay on Escherichia coli) was 1200 nM each time. Besides, the MIC (in general, the least concentration at which growth counts as inhibited) with Staphylococcus aureus was found to be 25 µg/mL. In addition, the Selectivity ratio in assay [2] was found to be 1.
Take `CC(N)CCC(N)CC(=O)N(C)C1CN=C(NC(N)=O)NC1=O.Cl.Cl` (configuration not stated): the results for the IC50 (in assay [1]; with Escherichia coli) were 1200 nM and 1000 nM, respectively. Besides, it took 0.4 µg/mL to inhibit growth in the assay with Staphylococcus aureus (MIC). Moreover, the Selectivity ratio in assay [2] was 1.2.
As for `C/C(N)=N/CCC[C@H](N)CC(=O)N(C)C1CN=C(NC(N)=O)NC1=O.Cl.Cl` (some centres not stated), in assay [1], the IC50 was 600 nM. In the assay with Staphylococcus aureus, this compound came in with an MIC of 0.4 µg/mL. Also, in assay [2], the Selectivity ratio was 0.17.
For the compound `CN(C(=O)C[C@@H](N)CCCN)C1CN=C(NC(N)=O)NC1=O.Cl.Cl` (some centres not stated), the results for the half-maximal inhibitory concentration (IC50) (in assay [1]; in the assay on Escherichia coli) were 3700 nM and 2000 nM, respectively. Besides, a half-maximal effect with J774 (EC50) was put at 25000 nM. Moreover, in the assay with Mus musculus, the ED100 came out at 0.2 mg/kg. Besides, in the assay with Staphylococcus aureus, the lowest concentration to inhibit growth (MIC) was 0.4 µg/mL. Further, the Selectivity ratio in assay [2] stood at 1.9.
Take `CN(C(=O)C[C@@H](N)CCCC#N)C1CN=C(NC(N)=O)NC1=O.Cl` (some centres not stated): the IC50 (in assay [1]; in the assay on Escherichia coli) was 25000 nM in each case. Also, 50 µg/mL was the least that counted as inhibitory with Staphylococcus aureus (MIC). For the same compound, the Selectivity ratio in assay [2] is 1.
In the assay with Escherichia coli, `CN(C(=O)CC(N)CC1CNCCO1)C1CN=C(NC(N)=O)NC1=O.Cl.Cl` (configuration not stated) registered an IC50 of 1500 nM. This compound displayed an MIC in the assay with Staphylococcus aureus of 6.3 µg/mL.
Turning to `CN(C(=O)C[C@@H](N)CCCN=C(N)N)C1CN=C(NC(N)=O)NC1=O.Cl.Cl` (some centres not stated), in assay [1], half-maximal inhibition (IC50) required 170 nM. In addition, in the assay on J774, the EC50 – broadly, the concentration giving half of the maximal effect – stood at 250 nM. The ED100 with Mus musculus was determined as 0.25 mg/kg. In addition, it took 0.1 µg/mL to inhibit growth against Staphylococcus aureus (MIC). The Selectivity ratio in assay [2] turned out to be 0.57.
In the case of `COC(=O)NCCC[C@H](N)CC(=O)N(C)C1CN=C(NC(N)=O)NC1=O` (some centres not stated), the concentration for half-maximal inhibition (IC50) in the assay on Escherichia coli is over 64000 nM. The compound further showed an MIC in the assay on Staphylococcus aureus of 100 µg/mL (≈ 269 µM).
In the assay on Escherichia coli, `CN(C(=O)CC(N)CCCO)C1CN=C(NC(N)=O)NC1=O.Cl` (configuration not stated) had an IC50 of over 64000 nM. In the assay with Staphylococcus aureus, it took 100 µg/mL to inhibit growth (MIC).
On the same counts, the results for `CN(C(=O)C[C@@H](N)CC(=O)CCN)C1CN=C(NC(N)=O)NC1=O.Cl.Cl` (some centres not stated) are 3000 nM and 3.2 µg/mL.
For the compound `CN(C(=O)C[C@@H](N)CCC/N=C(/N)S)C1CN=C(NC(N)=O)NC1=O.Cl` (some centres not stated), the IC50 (in assay [1]; in the assay on Escherichia coli) was 200 nM throughout. Also, the MIC with Staphylococcus aureus turned out to be 0.4 µg/mL. The Selectivity ratio in assay [2] was 1.
Regarding `CN(C(=O)C[C@@H](N)CCC(N)=O)C1CN=C(NC(N)=O)NC1=O.Cl` (some centres not stated), in the assay on Escherichia coli, it took 64000 nM to reach half-maximal inhibition (IC50). Moreover, inhibition of growth in the assay on Staphylococcus aureus (MIC) required 12.5 µg/mL.
On to `CN(C(=O)CC(N)c1cccc(NC(=N)N)c1)C1CN=C(NC(N)=O)NC1=O.Cl.Cl` (configuration not stated), for which the IC50 in assay [1] worked out at 260 nM; with Escherichia coli, 500 nM. This compound also displayed an MIC against Staphylococcus aureus of 50 µg/mL. Also, the Selectivity ratio in assay [2] turned out to be 0.52.
Consider `Br.Br.CN(C(=O)C[C@@H](N)CCCNC1=NCCN1)C1CN=C(NC(N)=O)NC1=O` (some centres not stated), for which the IC50 (in assay [1]; in the assay with Escherichia coli) was 9400 nM throughout. Further, in the assay on Staphylococcus aureus, 12.5 µg/mL was the least that counted as inhibitory (MIC). Further, in assay [2], the Selectivity ratio is 1.
For `CN(C(=O)C[C@@H](N)CC(O)CCN)C1CN=C(NC(N)=O)NC1=O.Cl.Cl` (some centres not stated), the IC50 in assay [1] amounted to 3200 nM; in the assay with Escherichia coli it was 3000 nM. In addition, the MIC with Staphylococcus aureus was determined as 0.4 µg/mL.
Consider `CN(C(=O)C[C@H](N)CCCN)C1CN=C(NC(N)=O)NC1=O.Cl.Cl` (some centres not stated), for which the IC50 in assay [1] was 9400 nM; with Escherichia coli it was 6000 nM. In addition, the MIC in the assay on Staphylococcus aureus was 6.3 µg/mL. Further, the Selectivity ratio in assay [2] came to 1.6.
`CN(C(=O)C[C@@H](N)CCCCN)C1CN=C(NC(N)=O)NC1=O.Cl.Cl` (some centres not stated) returned an IC50 in assay [1] of 2800 nM. The EC50 in the assay on J774 came to 6000 nM. In the assay with Mus musculus, the ED100 came to 0.25 mg/kg. Also, the minimum inhibitory concentration (MIC) against Staphylococcus aureus is 0.05 µg/mL. Further, the Selectivity ratio in assay [2] was 5.3.
With `CCNCCC[C@H](N)CC(=O)N(C)C1CN=C(NC(N)=O)NC1=O.Cl.Cl` (some centres not stated), the results for the IC50 (in assay [1]; with Escherichia coli) were 7600 nM and 4000 nM, respectively. In the assay with Staphylococcus aureus, this compound had an MIC of 0.8 µg/mL. Moreover, the Selectivity ratio in assay [2] was 1.9.
As for `C/N=C(/N)NCCC[C@H](N)CC(=O)N(C)C1CN=C(NC(N)=O)NC1=O.Cl.Cl` (some centres not stated), the midpoint of inhibition in assay [1], the IC50, lay at 4500 nM. The EC50 in the assay on J774 was found to be 5500 nM. In the assay on Mus musculus, this compound had an ED100 of 2 mg/kg. For the same compound, the MIC in the assay with Staphylococcus aureus came out at 0.8 µg/mL. In addition, in assay [2], the Selectivity ratio amounted to 9.1.
